Test results taken from patent US20250170212A1, “COMPOSITIONS AND METHODS OF TREATING AMYOTROPHIC LATERAL SCLEROSIS (ALS) AND RELATED DISORDERS” (BIOINCEPT, LLC, priority 2022, published 2025).
“Also recorded” adds a separate entry of the source.

Experiments:
[1] = system: transgenic SOD1^G93A mice; test: Hanging wire test (neuromuscular strength and coordination); assay type: in vivo, mouse; settings: weekly from day 0, drug groups with mGRPs
Experimental: To assess the motor capacity of our treatment groups, motor skills assays were performed. Starting at day −7 SOD1^G93A mice (n=30) were trained in hanging wire. Animals were trained 3 times a week in 2 days interval. Weekly measurements were performed starting at day 0 until the end of the experiment. Hanging wire test was used to test neuromuscular strength and coordination. Briefly, mice were hung on a wire and had to catch the wire both by upper and lower limbs as well as tangle it with tail in order to move the whole distance towards a stick (repeated three times for each mouse and obtaining an average). Maximum points (1.5 point) were given when mice performed the task. […] A poor score (<0.66 points) was given when a mouse was unable to move the whole distance and the amount of time for which mice were able to hang on the wire (1 sec=0.016 points) was counted. […]
All quantifications were performed including the manual cell counts in a blinded manner. The NeuN and Ibal were counted as positive cells in the ROI (see above) as previously reported. The number of cells was determined by unbiased counting of positive cells. […] Differences between groups were analyzed using a repeated measure ANOVA model with a fixed effect for the group, of the time and a random intercept for the mouse. […] The statistical significance at p<0.05 was then determined.

[2] = system: Iba1+ cells (microglial activation); test: Immunohistochemistry of microglial cells in brainstem motor nuclei; assay type: in vivo, mouse; settings: facial and hypoglossal motor nuclei; compared to Injury
Experimental: (§1) At the end of experiment, mice were subjected to full body perfusion with 20% sucrose and 10% buffered formalin suitable for histology assays (Sigma Aldrich, St.Louis, MO, USA). Mice were decapitated and incubated in formalin for 24 h. Following the tissues (brain and spinal cord) were isolated, paraffin fixed for further analyses. After brain removal, the tissue was fixed in a formaldehyde solution (4%) for 2-4 hours at RT followed by 4° C. for a total time of 24-48 hours. Fixed tissues were embedded in paraffin and finally sectioned into 7 μm slices. […]
(§2) Assessment of neuronal and microglial positive cells were performed in the region of interest (ROI). […] The images were analyzed and reconstructed using Image J (US National Institutes of Health).
(§3) All quantifications were performed including the manual cell counts in a blinded manner. The NeuN and Ibal were counted as positive cells in the ROI (see above) as previously reported. The number of cells was determined by unbiased counting of positive cells. […] Differences between groups were analyzed using a repeated measure ANOVA model with a fixed effect for the group, of the time and a random intercept for the mouse. In a second, more explorative, approach for each group the time when the physical activity was first measured below a certain threshold was determined. […]

[3] = system: NeuN positive cells (mature neurons); test: Immunohistochemistry of mature neurons in brainstem motor nuclei; assay type: in vivo, mouse; settings: facial and hypoglossal motor nuclei; compared to Injury
Experimental: as §1, §2, §3

[4] = system: experimental autoimmune encephalomyelitis; settings: murine EAE models; cited from earlier work
immature brain injury = settings: murine model of immature brain injury; cited from earlier work

## MVRIKPGSANKPSDD [sPIF]
[1]
  motor performance in hanging wire test (early motor impairment): significant delay of early motor impairment; also recorded: significant improvement of motor outcome
[2]
  number of Iba1+ microglial cells (neuroinflammation): significant prevention of neuroinflammation
[3]
  number of mature neurons (NeuN positive cells): significant protection of neuronal cells
[4]
  paralysis and myelination: reverse and prevent paralysis and restore myelination
Immature brain injury
  neuronal loss and microglial activation: mitigate neuronal loss and microglial activation
